The assay concerns the target T1, Smc1/Smc3 heterodimer with Scc1-C (cohesin) (Saccharomyces cerevisiae, UniProt P32908+P47037, P32908:K39I, form not given).
T1 construct: N-terminal tags; Sf9 insect cells; fluorescently labelled for MST; with Sister chromatid cohesion protein 1
T1 sequence (P32908 1-1225 K39I): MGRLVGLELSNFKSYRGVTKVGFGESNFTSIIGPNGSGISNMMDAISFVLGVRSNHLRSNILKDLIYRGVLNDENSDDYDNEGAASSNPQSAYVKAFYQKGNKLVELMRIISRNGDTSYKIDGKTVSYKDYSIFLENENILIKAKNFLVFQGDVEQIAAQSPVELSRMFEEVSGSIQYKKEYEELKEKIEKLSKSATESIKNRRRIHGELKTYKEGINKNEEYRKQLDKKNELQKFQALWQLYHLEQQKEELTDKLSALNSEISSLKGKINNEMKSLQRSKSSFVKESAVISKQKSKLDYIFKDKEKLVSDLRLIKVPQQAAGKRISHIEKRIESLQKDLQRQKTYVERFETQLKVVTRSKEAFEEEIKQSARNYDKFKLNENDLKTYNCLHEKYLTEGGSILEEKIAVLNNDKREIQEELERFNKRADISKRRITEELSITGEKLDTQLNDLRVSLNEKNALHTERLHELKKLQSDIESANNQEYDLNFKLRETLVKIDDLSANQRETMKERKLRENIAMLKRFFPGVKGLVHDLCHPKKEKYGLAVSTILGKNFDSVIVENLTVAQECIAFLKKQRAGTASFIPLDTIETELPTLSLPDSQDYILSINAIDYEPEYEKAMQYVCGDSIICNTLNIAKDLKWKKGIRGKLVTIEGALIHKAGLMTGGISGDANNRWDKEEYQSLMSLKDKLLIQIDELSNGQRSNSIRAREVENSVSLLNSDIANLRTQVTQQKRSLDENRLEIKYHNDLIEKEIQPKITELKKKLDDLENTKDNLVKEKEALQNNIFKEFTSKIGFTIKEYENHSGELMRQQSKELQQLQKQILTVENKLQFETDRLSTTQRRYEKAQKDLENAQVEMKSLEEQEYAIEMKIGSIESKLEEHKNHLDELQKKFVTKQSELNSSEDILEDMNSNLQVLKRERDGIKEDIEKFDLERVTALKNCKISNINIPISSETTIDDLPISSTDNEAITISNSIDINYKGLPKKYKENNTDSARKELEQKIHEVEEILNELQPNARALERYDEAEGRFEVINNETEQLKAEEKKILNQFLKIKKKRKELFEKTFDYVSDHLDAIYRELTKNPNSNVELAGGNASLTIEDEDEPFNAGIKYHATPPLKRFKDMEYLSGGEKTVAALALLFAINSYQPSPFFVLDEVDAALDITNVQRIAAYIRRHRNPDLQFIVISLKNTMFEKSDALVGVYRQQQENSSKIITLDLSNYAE
T1 sequence (P47037 1-1230): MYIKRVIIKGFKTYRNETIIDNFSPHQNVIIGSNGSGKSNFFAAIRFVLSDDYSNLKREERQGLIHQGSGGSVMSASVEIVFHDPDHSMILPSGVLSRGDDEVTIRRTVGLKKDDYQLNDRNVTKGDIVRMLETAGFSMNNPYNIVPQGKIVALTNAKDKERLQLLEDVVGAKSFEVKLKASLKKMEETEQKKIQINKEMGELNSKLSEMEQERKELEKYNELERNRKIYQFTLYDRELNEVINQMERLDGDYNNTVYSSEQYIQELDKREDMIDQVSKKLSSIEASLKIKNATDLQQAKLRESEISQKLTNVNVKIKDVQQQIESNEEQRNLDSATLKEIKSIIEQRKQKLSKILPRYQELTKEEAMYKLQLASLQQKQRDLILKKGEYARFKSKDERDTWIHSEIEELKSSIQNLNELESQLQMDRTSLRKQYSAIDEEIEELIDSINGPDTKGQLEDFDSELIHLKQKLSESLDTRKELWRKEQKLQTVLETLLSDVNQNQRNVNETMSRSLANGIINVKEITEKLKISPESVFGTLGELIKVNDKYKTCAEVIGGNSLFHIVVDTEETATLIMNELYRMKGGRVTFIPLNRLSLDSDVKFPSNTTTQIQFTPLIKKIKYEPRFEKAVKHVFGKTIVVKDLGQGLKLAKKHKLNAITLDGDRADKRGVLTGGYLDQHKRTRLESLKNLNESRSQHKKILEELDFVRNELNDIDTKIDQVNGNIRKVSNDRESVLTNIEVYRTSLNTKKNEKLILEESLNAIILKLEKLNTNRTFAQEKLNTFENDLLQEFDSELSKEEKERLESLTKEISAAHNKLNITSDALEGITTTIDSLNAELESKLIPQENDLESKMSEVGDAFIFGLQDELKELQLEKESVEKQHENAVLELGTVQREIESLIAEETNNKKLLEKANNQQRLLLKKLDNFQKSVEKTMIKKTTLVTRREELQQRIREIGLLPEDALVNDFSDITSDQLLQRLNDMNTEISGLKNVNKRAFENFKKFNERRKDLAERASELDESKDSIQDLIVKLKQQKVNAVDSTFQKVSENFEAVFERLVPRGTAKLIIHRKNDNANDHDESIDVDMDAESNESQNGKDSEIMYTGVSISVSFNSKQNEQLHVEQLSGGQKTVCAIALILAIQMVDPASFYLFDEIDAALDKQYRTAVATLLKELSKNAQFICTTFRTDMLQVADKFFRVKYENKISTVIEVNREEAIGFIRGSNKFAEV
T1 sequence (Q12158 1-566 partner): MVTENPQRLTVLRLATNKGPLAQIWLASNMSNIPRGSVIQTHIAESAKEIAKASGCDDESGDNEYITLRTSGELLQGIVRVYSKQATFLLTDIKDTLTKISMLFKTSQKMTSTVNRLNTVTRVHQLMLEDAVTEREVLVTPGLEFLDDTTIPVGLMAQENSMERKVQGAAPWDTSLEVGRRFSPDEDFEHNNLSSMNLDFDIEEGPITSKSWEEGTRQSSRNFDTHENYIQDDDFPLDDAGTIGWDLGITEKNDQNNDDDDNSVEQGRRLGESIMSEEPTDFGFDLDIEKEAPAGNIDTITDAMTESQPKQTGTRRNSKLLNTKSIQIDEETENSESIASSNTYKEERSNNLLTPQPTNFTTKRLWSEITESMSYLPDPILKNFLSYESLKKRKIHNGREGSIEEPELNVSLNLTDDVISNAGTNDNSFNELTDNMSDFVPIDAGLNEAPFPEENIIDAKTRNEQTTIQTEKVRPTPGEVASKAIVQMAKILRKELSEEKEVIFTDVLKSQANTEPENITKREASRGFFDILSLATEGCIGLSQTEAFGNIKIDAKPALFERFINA
The assay can be described thus: microscale thermophoresis. Conditions: fluorescently labelled protein; Smc1 co-purified with Scc1-C, plus Smc3; binding abrogated.

As to `Nc1ncnc2c1ncn2[C@@H]1O[C@H](COP(=O)(O)OP(=O)(O)O)[C@@H](O)[C@H]1O` [ADP], the microscale thermophoresis result was “each of the Walker A mutations efficiently abrogated binding to ATP and ADP”.

For the molecule `Nc1ncnc2c1ncn2[C@@H]1O[C@H](COP(=O)(O)OP(=O)(O)OP(=O)(O)O)[C@@H](O)[C@H]1O` [ATP], the microscale thermophoresis entry is “each of the Walker A mutations efficiently abrogated binding to ATP and ADP”.
